The source of these data is US6022307A, “Substituted dibenzothiophenes having antiangiogenic activity” (American Cyanamid Company, priority 1999, dated 2000).

Counter-ions that a name gives are not always drawn.

The subject of assay [1] is corneal neovascularization. Nature of the assay: Corneal Neovascularization Model. To be noted: 100 mg/kg, PO, days 1-10. The format is in vivo, mice. The protocol:
Corneal Neovascularization Model
The sustained release preparations of angiogenic agents (ELVAX pellet) were prepared by solvent casting. […] The solvent was then evaporated, leaving the angiogenic agent in the polymeric matrix
Mice were anesthetized using a 1-1.5 ml/kg solution containing a mixture of 70% ketamine hydrochloride (100 mg/ml) and 30% xylazine (20 mg/ml). Using sterile surgical technique, an ELVAX pellet containing either basic FGF (100 ng) or VEGF (400 ng) was implanted into a previously dissected intrastromal corneal pocket 0.5 mm from the corneoscleral limbus. Following implantation the implantation site margins were reapposed and the eyes were treated with topical antibiotic ointment (bacitracin/neomycin/polymixin). On various days (between postoperative days 4 and 18) the extent of neovascularization was measured.
Neovascularization was monitored by measurements of new vessel growth within the previously avascular cornea. This parameter was obtained by measuring with calipers under microscopic magnification the length of the base of the neovascular bed at the limbus. The area of neovascularization,which is typically triangular, was calculated by dividing the product of the length of the vessel and the base length by two. Data was statistically analyzed via Student-t-test of Log Relative Reduction of Neovascularization. A p-value (p≤0.05) indicates a statistically significant reduction in neovascularization of Treated Group, compared to Placebo Control.

The subject of assay [2] is VEGF 165-induced vascular permeability. Kind of assay: Inhibition of Vascular Permeability Assay (Miles Assay). The format is in vivo, BALB/c female mice. The following applies: 100 mg/kg, PO. How it is done:
Inhibition of Vascular Permeability Assay (Miles Assay) This assay was performed using BALB/c female mice (Charles River, Wilmington, Mass.). Both sides of the animals were shaved between 24 and 48 hours before the start of the assay. There were 10 animals per experimental group. […] One half hour later the animals were sacrificed by CO2 inhalation. […] Data was statistically analyzed via Student-t-test. A p-value (p≤0.05) indicates a statistically significant difference between the area of vascular permeability of the vehicle control verses the experimental group. Data was statistically analyzed via Student-t-test of Log Relative Area of Permiability. A p-value (p≤0.05) indicates a statistically significant reduction in permeability of Treated Group, compared to Placebo Control.

Usually IC50 stands for the concentration that inhibits the measured activity by half. Lower therefore signals higher potency.

Description for KDR: Inhibition of Binding of VEGF 165 to KDR & Flt-1 Receptors as Measured by SPA Assay
Preparation of conditioned media containing the KDR-Fc soluble VEGF receptor.:
Human 293KDR2 cells, which secrete a soluble KDR-Fc fusion protein, were grown in Dulbecco's Modified Eagle Medium supplemented with 10% fetal calf serum, 2 mM glutamine, 10 units/ml penicillin G sulfate, 10 μg/ml streptomycin sulfate and 175 μg/ml geneticin (G418) sulfate. Cells were plated at a density of 10^6 cells/100 mm dish and incubated at 37° C. in a humidified atmosphere containing 95% air and 5% CO2. After 10 days, conditioned medium was collected and centrifuged at 15,000 rpm for 15 min to remove dead cells. A total of 0.1 volume of 1.15% gelatin and 0.02 volume of 1M HEPES buffer (pH 8) was added. Leupeptin and pepstatin A were added to 1 μg/ml each.
Preparation of ^125 I-labelled VEGF ligand:
Recombinant human ^125 T-labelled VEGF 165 was purchased from Amersham (3,800 cpm/fmol). ^125,-labelled VEGF was diluted in DMEM supplemented with gelatin (0.15%) and HEPES buffer (20 mM) to a final concentration of 40,000 cpm/25 μl.
Preparation of SPA beads:
SPA PVT antibody-binding beads were purchased from Amersham. Each bottle of SPA beads (500 mg) was reconstituted in 25 ml of DMEM supplemented with gelatin (0.15%) and HEPES buffer (20 mM). The bottle contents were well mixed (15 min with a stir bar at room temperature).
SPA assays were performed in flat-bottom polystyrene 96 well microtitre plates.
(a) Pipette 50 μl of SPA beads to well.
(b) Pipette 25 μl of conditioned medium to well.
(d) Pipette 25 μl of ^125 J-VEGF 165 to well.
The appropriate control wells were set up to measure non-specific binding, solvent effect, etc. The assays were run in duplicate or triplicate wells. Plates were sealed and incubate at room temperature without shaking for 5 to 20 hours. Plates were then counted in a Packard TopCount microtitre plate liquid scintillation counter.
A typical assay gave 3,000 to 6,000 cpm bound. Background binding (measured in the presence of 100-fold molar excess of unlabelled VEGF 165) was typically 200 to 300 cpm bound. Compounds were tested at 30, 10, 3, 1, 0.3 and 0.1 μg/ml in DMSO. […] Half maximal binding was determined by the following equation:
s=maximal cpm bound in the absence of compound.
The IC50 values were determined graphically by the following procedure:
A graph was drawn plotting compound concentration (x-axis) versus cpm bound (y-axis).
The half maximal binding was calculated using the equation above.
A horizontal line (LINE A) was drawn which intersects the y-axis at the half maximal binding value.
A vertical line (LINE B) was drawn through the point where LINE A intersects the inhibition curve.
The point where LINE B intersects the x-axis was extrapolated from the graph to give the IC50 value.

As to `COc1ccc(C=CC(=O)Nc2cc3sc4cc(NC(=O)C=Cc5ccc(OC)c(OC)c5Cl)c(C(=O)[O-])cc4c3cc2C(=O)[O-])c(Cl)c1OC.[Na+].[Na+]`, the “Inhibition of Corneal Neovascularization” value in assay [1] (Day 4) came to 11%; in assay [1] (Day 8) it was 24%; in assay [1] (Day 11), 29%; in assay [1] (Day 13), 37%.

For the compound `O=C(Nc1cc2sc3cc(NC(=O)c4cc5ccccc5s4)c(C(=O)O)cc3c2cc1C(=O)O)c1cc2ccccc2s1` [Example 2, 3,7-Bis-r(benzo[b]thiophene-2-carbonyl)amino]dibenzothiophene-2,8-dicarboxylic acid, disodium salt], in assay [2] (4 hr prior to VEGF), the “% Control” value stood at 57% and the “Lesion Area (measured area of vascular permeability)” value (“Lesion Area” below) is 34.0 mm^2. For the same compound, in the assay with KDR, the IC50 turned out to be 1.5 µg/mL.

`O=C(Nc1cc2sc3cc(NC(=O)c4ccc5c(c4)C(=O)c4ccccc4C5=O)c(C(=O)O)cc3c2cc1C(=O)O)c1ccc2c(c1)C(=O)c1ccccc1C2=O.[Na].[Na]` [Example 4, 3,7-Bis{[(9,10-dihydro-9,10-dioxo-2-anthracenyl)carbonyl]-amino}dibenzothiophene-2,8-dicarboxylic acid, disodium]: the “Inhibition of Corneal Neovascularization” value came to 55% in assay [1] (Day 4), 38% in assay [1] (Day 8), 40% in assay [1] (Day 11) and 23% in assay [1] (Day 13). Besides, the IC50 in the assay with KDR was 0.2 µg/mL.

As for `COc1ccc(/C=C/C(=O)Nc2cc3sc4cc(NC(=O)/C=C/c5ccc(OC)cc5)c(C(=O)O)cc4c3cc2C(=O)O)cc1` [Example 12, 3,7-Bis{[3-(4-methoxyphenyl)acryloylamino]-dibenzothiophene-2,8-dicarboxylic Acid, disodium salt], the “Inhibition of Corneal Neovascularization” value in assay [1] (Day 4) is 41%; in assay [1] (Day 8), 41%; in assay [1] (Day 11), 34%; in assay [1] (Day 13), 8%. For the same compound, in the assay on KDR, it took 4.9 µg/mL to reach half-maximal inhibition (IC50).

Take `O=C(C=Cc1ccc(-c2ccccc2)cc1)Nc1cc2c(cc1S(=O)(=O)O)-c1cc(S(=O)(=O)O)c(NC(=O)C=Cc3ccc(-c4ccccc4)cc3)cc1S2(=O)=O` [Example 24, 3,7-Bis-[3-(4-phenylphenyl)acryloylamino]-5,5-dioxo-5H-5λ^6-dibenzothiophene-2,8-disulfonic acid, disodium salt]: the “% Control” value in assay [2] (1 hr prior to VEGF) is on record as 55%; in assay [2] (2 hr prior to VEGF), 80%; in assay [2] (4 hr prior to VEGF), 49%. Further, the “Lesion Area” value in assay [2] (1 hr prior to VEGF) turned out to be 25.8 mm^2; in assay [2] (2 hr prior to VEGF), 37.8 mm^2; in assay [2] (4 hr prior to VEGF), 23.1 mm^2. Further, inhibition in the assay on KDR was half-maximal at 0.8 µg/mL (IC50).

`O=Cc1ccc(/C=C/C(=O)Nc2cc3c(cc2S(=O)(=O)O)-c2cc(S(=O)(=O)O)c(NC(=O)/C=C/c4ccc(C=O)cc4)cc2S3(=O)=O)cc1` [Example 29, 3,7-Bis-[3-(4-formylphenyl)-acryloylamino]-5,5-dioxo-5H-5^6-dibenzothiophene-2,8-disulfonic acid, disodium salt]: in assay [2] (4 hr prior to VEGF), the “% Control” value was found to be 81% and the “Lesion Area” value was 76.5 mm^2. The half-inhibitory concentration (IC50) with KDR turned out to be 0.5 µg/mL.

Regarding `O=C(Nc1cc2c(cc1S(=O)(=O)O)-c1cc(S(=O)(=O)O)c(NC(=O)c3cc4ccccc4o3)cc1S2(=O)=O)c1cc2ccccc2o1` [Example 42, 3,7-Bis[(benzo[b]furan-2-carbonyl)amino]-5,5-dioxo-5H-5^6-dibenzothiophene-2,8-disulfonic acid, disodium salt], the “% Control” value in assay [2] (2 hr prior to VEGF) amounted to 74%; in assay [2] (4 hr prior to VEGF), 69%. Moreover, the “Lesion Area” value came out at 40.0 mm^2 in assay [2] (2 hr prior to VEGF); 33.5 mm^2 in assay [2] (2 hr prior to VEGF, disodium salt); 31.1 mm^2 in assay [2] (4 hr prior to VEGF). In addition, the IC50 in the assay with KDR was 0.6 µg/mL.

Consider `COc1ccc2cc(C(=O)Nc3cc4c(cc3S(=O)(=O)O)-c3cc(S(=O)(=O)O)c(NC(=O)c5cc6ccc(OC)cc6oc5=O)cc3S4(=O)=O)c(=O)oc2c1` [Example 47, 3,7-Bis-[(7-methoxy-2-oxo-benzopyran-3-yl)-carbonylamino]-5,5-dioxo-5H-5^6-dibenzothiophene-2,8-disulfonic acid, disodium salt], for which, in assay [2] (4 hr prior to VEGF), the “% Control” value was determined as 71% and the “Lesion Area” value amounted to 32.8 mm^2. 0.5 µg/mL corresponded to half-maximal inhibition in the assay with KDR (IC50).

Compound `COc1ccc(C(=O)Nc2cc3c(cc2S(=O)(=O)O)-c2cc(S(=O)(=O)O)c(NC(=O)c4ccc(OC)cc4OC)cc2S3(=O)=O)c(OC)c1` [Example 51, 3,7-Bis-(2,4-dimethoxybenzoyl-amino)-5,5-dioxo-5H-5^6-dibenzothiophene-2,8-disulfonic acid disodium salt] registered a 50% inhibitory concentration (IC50) in the assay on KDR of 5 µg/mL.

Take `O=C(Nc1cc2c(cc1S(=O)(=O)O)-c1cc(S(=O)(=O)O)c(NC(=O)c3ccc(S(=O)(=O)c4ccccc4)cc3)cc1S2(=O)=O)c1ccc(S(=O)(=O)c2ccccc2)cc1` [Example 52, 5,5-Dioxo-3,7-bis-(4-phenyl-sulfonylbenzoyl-amino)-5H-5^6-dibenzothiophene-2,8-disulfonic acid, disodium salt]: the IC50 in the assay on KDR is 7 µg/mL.

In turn, `CCOc1cc2ccccc2cc1C(=O)Nc1cc2c(cc1S(=O)(=O)O)-c1cc(S(=O)(=O)O)c(NC(=O)c3cc4ccccc4cc3OCC)cc1S2(=O)=O` [Example 53, 3,7-Bis-(3-ethoxy-naphthalen-2-ylcarbonylamino)-5,5-dioxo-5H-5^6-dibenzothiophene-2,8-disulfonic acid, disodium salt] yielded an IC50 with KDR of 7 µg/mL.

With `O=C(Nc1cc2c(cc1S(=O)(=O)O)-c1cc(S(=O)(=O)O)c(NC(=O)c3ccc4ccccc4c3)cc1S2(=O)=O)c1ccc2ccccc2c1` [Example 57, 3,7-Bis-[(naphthalen-2-yl)carbonylamino]-5,5-dioxo-5H-5^6-dibenzothiophene-2,8-disulfonic acid, disodium salt], the IC50 with KDR stood at 5 µg/mL.

In the assay with KDR, `COc1ccc(C(=O)Nc2ccc(C(=O)Nc3cc4c(cc3S(=O)(=O)O)-c3cc(S(=O)(=O)O)c(NC(=O)c5ccc(NC(=O)c6ccc(OC)cc6OC)cc5OC)cc3S4(=O)=O)c(OC)c2)c(OC)c1` [Example 58, 3,7-Bis-({4-[(2,4-dimethoxy-phenyl)carbonyl-amino]-2-methoxy-phenyl}carbonyl-amino)-5,5-dioxo-5H-5^6-dibenzothiophene-2,8-disulfonic acid, disodium salt] displayed a half-maximal inhibitory concentration (IC50) of 1.5 µg/mL.

On to `COc1cc(NC(C)=O)ccc1C(=O)Nc1cc2c(cc1S(=O)(=O)O)-c1cc(S(=O)(=O)O)c(NC(=O)c3ccc(NC(C)=O)cc3OC)cc1S2(=O)=O` [Example 59, 3,7-Bis-[(4-acetylamino-2-methoxy-phenyl)carbonylamino]-5,5-dioxo-5H-5^6-dibenzothiophene-2,8-disulfonic acid, disodium salt], for which, in the assay with KDR, the IC50 stood at 6 µg/mL.

Compound `O=C(Nc1ccc(C(=O)Nc2cc3c(cc2S(=O)(=O)O)-c2cc(S(=O)(=O)O)c(NC(=O)c4ccc(NC(=O)c5ccccc5)cc4)cc2S3(=O)=O)cc1)c1ccccc1` [Example 60, 3,7-Bis-(4-benzoylaminobenzoylamino)-5,5-dioxo-5H-5^6-dibenzothiophene-2,8-disulfonic acid, disodium salt] registered an IC50 with KDR of 0.5 µg/mL.

For the compound `COc1ccc(C=CC(=O)Nc2cc3sc4cc(NC(=O)C=Cc5ccc(OC)c(OC)c5Cl)c(C(=O)[O-])cc4c3cc2C(=O)[O-])c(Cl)c1OC.[Na+].[Na+]` [disodium salt], inhibition with KDR was half-maximal at 3 µg/mL (IC50).
